{"source": "patent US4749559A", "about": "“Method for detecting melanin-containing matter” (United States of America, priority 1986, dated 1988)", "key": {"B16 melanoma [1]": {"tested_on": "B16 melanoma", "test": "In vitro binding of [125I]BZZ to homogenate of B16 melanoma", "design": "species or system mouse", "description": "(§1) A tissue homogenate rather than washed particulate material was used for the assay. The assay system (final volume 200 μ) contained Tris-HCl (pH 7.4), 80 mM; ethyleneglyco-bis-(β-aminoethyl ether) N,N',tetraacetic (EGTA), 0.8 mM and MgSO4, 10 mM; radiolabeled ligand (40,000 cpm, 60 pM) and the unlabeled ligand as required for competitive assay; and incubations were performed at 25° C. for about 60 min. When binding to striatum and to tumor were compared, binding to homogenates of both tissues was determined simultaneously. In order to determine the reproducibility of the results, ligand binding was determined in 3 replicate samples for each experimental condition. The mean of these three values was taken as a single errorless value and the mean of three (or more) of such values from independent experiments is reported. Data represent mean ± SE."}, "[2]": {"tested_on": "caudate nucleus of the rat brain", "test": "Binding of [125I]BZZ enantiomers to homogenate of caudate nucleus", "conditions": "FIG. 5", "description": "as §1"}, "human melanoma": {"tested_on": "human melanoma", "test": "In vitro autoradiography of frozen sections of human melanoma (lymph node)", "assay_type": "binding", "conditions": "lymph node with pigmented metastatic melanoma; 200 pM ligand; FIG. 6 right", "description": "(§2) After animals were killed, the brain, eyes or tumor were immediately removed and frozen on dry ice. Frozen, 16 μthick sections were cut in a cryostat at -16° C., thaw-mounted onto gelatin-coated slides and stored overnight under vacuum at 4° C. The tissue sections were preincubated for 15 min in 50 mM Tris-HCl buffer, pH 7.4, for 15 min and then incubated for 20 min in a solution containing 50 mM Tris-HCl, pH 7.4, 120 mM NaCl, 5 mM KCl, 2 mM CaCl2, 1 mM MgCl2 and 200 pM iodinated ligand (either R or S enantiomer). After incubation, the slides were washed 4 times in ice-cold 50 mM Tris-HCl buffer and dried under a stream of air. Autoradiographic images were produced by placing the slides in X-ray casettes and using them to expose [^3 H]ultra film for 15 hours following standard procedure."}, "B16 melanoma [3]": {"tested_on": "B16 melanoma", "test": "In vitro autoradiography of frozen sections of B16 melanoma", "assay_type": "binding, mouse", "conditions": "200 pM ligand; FIG. 6 left", "description": "as §2"}, "D-1 dopamine receptor": {"molecular_target": "T1, D-1 dopamine receptor (Mus musculus, UniProt Q61616)", "T1 construct": "homogenate of the caudate putamen of the Swiss Webster mouse brain; from tissue; host or cells: caudate-putamen homogenate, Swiss Webster mouse brain", "T1 sequence (Q61616 whole entry)": "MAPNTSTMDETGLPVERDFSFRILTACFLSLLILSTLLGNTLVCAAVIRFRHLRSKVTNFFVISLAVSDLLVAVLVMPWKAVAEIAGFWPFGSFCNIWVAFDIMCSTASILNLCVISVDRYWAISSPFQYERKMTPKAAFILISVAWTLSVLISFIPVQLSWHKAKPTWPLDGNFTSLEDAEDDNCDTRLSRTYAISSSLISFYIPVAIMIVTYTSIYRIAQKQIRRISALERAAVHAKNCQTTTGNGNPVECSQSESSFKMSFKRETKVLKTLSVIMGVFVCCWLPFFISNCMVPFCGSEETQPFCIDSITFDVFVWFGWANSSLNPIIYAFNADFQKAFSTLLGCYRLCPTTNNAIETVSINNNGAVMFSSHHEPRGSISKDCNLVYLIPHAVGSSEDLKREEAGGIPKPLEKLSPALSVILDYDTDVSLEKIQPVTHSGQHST", "test": "In vitro binding of [125I]BZZ to homogenate of caudate putamen (competition with unlabeled SCH23390 enantiomers)", "conditions": "FIG. 4A", "description": "as §1"}, "B16 melanoma [4]": {"tested_on": "B16 melanoma", "test": "In vivo accumulation of intravenously administered radiolabel in B16 melanoma (gamma counting, autoradiography)", "design": "species or system mouse", "description": "The B16 melanoma was removed from the host mouse, washed in a balanced salt solution and then cut into small fragments (approximately 2 mm cubes). A tumor fragment was then implanted subcutaneously with a trochar into either the back or hind limb of the recipient mouse (either a C57/B16 or Swiss-Webster). Tumors could be easily seen within 2 to 3 weeks after implantation of the tumor fragment.\n(§3) Radiolabeled ligand was dissolved in Hank's balanced salt solution and administered via the tail vein as a bolus of 100 μl. At appropriate times, the animals were sacrificed and various organs removed. The amount of ^125 I radioactivity within a given organ was determined with a gamma counter.\nas §2"}, "[5]": {"test": "In vivo accumulation of radiolabel in eyes of pigmented and albino mice", "design": "species or system mouse", "description": "as §3, §2"}, "B16 melanoma [6]": {"tested_on": "B16 melanoma", "test": "Noninvasive imaging of [125I] with pinhole collimator and gamma camera", "assay_type": "in vivo, mouse", "conditions": "tumor-bearing and nontumor-bearing mice; 50 μCi intravenous; FIG. 2", "description": "Mice received a bolus injection of [^125 I]BZZ (50 μCi) dissolved in Hank's balanced salt solution via the tail vein. At several times, the distribution of [^125 I]was determined by imaging with a pinhole collimeter attached to a gamma camera (Raytheon Nuclear Diagnostics)."}, "[7]": {"test": "In vitro autoradiography of frozen section of retina", "assay_type": "binding, mouse", "conditions": "FIG. 3C", "description": "as §2\nEmulsion autoradiography was performed as follows: a flexible coverslip coated with NTB-3 (Kodak) was exposed to the tissue section; when the exposure was complete in about a day (about 24 hrs) the emulsion was developed at 4° for 2 min in D-19 developer. The section was stained with hematoxylin and eosin and the coverslip was reexposed to the stained section."}, "[8]": {"conditions": "mouse given B16 melanoma cells intravenously 3 weeks earlier, 50 μCi, autoradiogram FIG. 1D, E"}}, "data": [{"smiles": "CN1CCc2cc([125I])c(O)cc2[C@H](c2ccccc2)C1", "note": "[[^125 I]-S-BZZ]", "values": [{"measurement": "binding to pigmented B16 melanoma homogenate", "setting": "B16 melanoma [1]; compared with R-enantiomer, FIG. 5", "value": "to the same degree as did its R-enantiomer"}, {"measurement": "binding to homogenate of caudate nucleus", "setting": "[2]", "value": "failed to bind"}, {"measurement": "binding to metastatic human melanoma (frozen section autoradiogram)", "setting": "human melanoma", "value": "effectively bind"}, {"measurement": "binding to frozen sections of murine B16 melanoma", "setting": "B16 melanoma [3]", "value": "bound to frozen sections"}]}, {"smiles": "CN1CCc2cc([125I])c(O)cc2[C@@H](c2ccccc2)C1", "note": "[[^125 I]BZZ]", "values": [{"measurement": "amount of bound radioactivity corresponding to 100 percent", "setting": "D-1 dopamine receptor; homogenate of caudate putamen of Swiss Webster mouse brain", "value": "23,379±555 cpm/mg wet wt"}, {"measurement": "amount of bound radioactivity corresponding to 100 percent", "setting": "B16 melanoma [1]; homogenate of B16 melanoma propagated in Swiss Webster mice, FIG. 4B", "value": "18,033±3,647 cpm/mg wet weight"}, {"measurement": "concentration of radiolabel within B-16 melanoma relative to nonpigmented eye", "setting": "B16 melanoma [4]; albino mouse, 10 μCi intravenous, within 45 min, p<0.001", "value": 19, "unit": "times"}, {"measurement": "accumulation of radiolabel in tumor versus surrounding tissues (autoradiograph)", "setting": "B16 melanoma [4]; frozen section of B16 melanoma after intravenous administration, FIG. 1B, C", "value": "much higher degree than within the surrounding tissues"}, {"measurement": "accumulation of radiolabel in foci of pigmented cells of lung (metastatic melanoma)", "setting": "B16 melanoma [4]; [8]", "value": "heavy accumulation of radiolabel"}, {"measurement": "binding of ligand to normal lung tissue", "setting": "B16 melanoma [4]; [8]", "value": "does not bind the ligand"}, {"measurement": "localization of radiolabel within the pigmented eye (autoradiography)", "setting": "[5]; 50 μCi, 45 min, FIG. 3B", "value": "accumulated predominantly in a narrow band at the back of the pigmented eye"}, {"measurement": "difference between amount of radiolabel accumulated in pigmented and albino eyes", "setting": "[5]; C57B1/6 versus Swiss Webster mouse, 10 μCi intravenous, P<0.001", "value": 79, "unit": "fold"}, {"measurement": "accumulation within the abdomen", "setting": "B16 melanoma [6]", "value": "substantial accumulation"}, {"measurement": "localization of radiolabel in frozen section of retina exposed to ligand in vitro", "setting": "[7]", "value": "highly concentrated within the melanin containing pigment epithelium"}, {"measurement": "binding to metastatic human melanoma (frozen section autoradiogram)", "setting": "human melanoma", "value": "effectively bind"}, {"measurement": "binding to frozen sections of murine B16 melanoma", "setting": "B16 melanoma [3]", "value": "bound to frozen sections"}]}, {"smiles": "CN1CCc2cc(Cl)c(O)cc2C(c2ccccc2)C1", "note": "(centres unmarked) [2,3,4,5-tetrahydro-8-chloro-3 methyl-5-phenyl-1H-3 benzazepin-7-ol]", "values": [{"measurement": "displacement of [125I]BZZ from melanoma tissue", "setting": "B16 melanoma [1]", "value": "effectively displaced"}]}, {"smiles": "CN1CCc2cc(Cl)c(O)cc2[C@@H](c2ccccc2)C1", "note": "[R-enantiomer, reference compound]", "values": [{"measurement": "affinity for R-enantiomer relative to S-enantiomer", "setting": "D-1 dopamine receptor; D-1 receptor in caudate nucleus, displacement of [125I]BZZ", "value": 100, "unit": "fold"}, {"measurement": "concentration required to displace [125I]BZZ from melanoma binding site relative to D-1 dopamine receptor", "setting": "B16 melanoma [1]; B16 melanoma versus caudate homogenate, FIGS. 4A and B", "value": 400, "unit": "fold"}, {"measurement": "difference between R- and S-enantiomers", "setting": "B16 melanoma [1]; binding site in B16 melanoma, displacement of [125I]BZZ, FIG. 4B", "value": 5.1, "unit": "fold"}]}]}
